The assay addresses EGFR (Homo sapiens, UniProt P00533). Put plainly: in vitro EGFR inhibition, Human EGFR ELISA kit. The format is biochemical. On the technique in general: An ELISA detects its analyte on a solid surface through an enzyme-linked reagent.

Chain of EGFR (P00533 25-1210): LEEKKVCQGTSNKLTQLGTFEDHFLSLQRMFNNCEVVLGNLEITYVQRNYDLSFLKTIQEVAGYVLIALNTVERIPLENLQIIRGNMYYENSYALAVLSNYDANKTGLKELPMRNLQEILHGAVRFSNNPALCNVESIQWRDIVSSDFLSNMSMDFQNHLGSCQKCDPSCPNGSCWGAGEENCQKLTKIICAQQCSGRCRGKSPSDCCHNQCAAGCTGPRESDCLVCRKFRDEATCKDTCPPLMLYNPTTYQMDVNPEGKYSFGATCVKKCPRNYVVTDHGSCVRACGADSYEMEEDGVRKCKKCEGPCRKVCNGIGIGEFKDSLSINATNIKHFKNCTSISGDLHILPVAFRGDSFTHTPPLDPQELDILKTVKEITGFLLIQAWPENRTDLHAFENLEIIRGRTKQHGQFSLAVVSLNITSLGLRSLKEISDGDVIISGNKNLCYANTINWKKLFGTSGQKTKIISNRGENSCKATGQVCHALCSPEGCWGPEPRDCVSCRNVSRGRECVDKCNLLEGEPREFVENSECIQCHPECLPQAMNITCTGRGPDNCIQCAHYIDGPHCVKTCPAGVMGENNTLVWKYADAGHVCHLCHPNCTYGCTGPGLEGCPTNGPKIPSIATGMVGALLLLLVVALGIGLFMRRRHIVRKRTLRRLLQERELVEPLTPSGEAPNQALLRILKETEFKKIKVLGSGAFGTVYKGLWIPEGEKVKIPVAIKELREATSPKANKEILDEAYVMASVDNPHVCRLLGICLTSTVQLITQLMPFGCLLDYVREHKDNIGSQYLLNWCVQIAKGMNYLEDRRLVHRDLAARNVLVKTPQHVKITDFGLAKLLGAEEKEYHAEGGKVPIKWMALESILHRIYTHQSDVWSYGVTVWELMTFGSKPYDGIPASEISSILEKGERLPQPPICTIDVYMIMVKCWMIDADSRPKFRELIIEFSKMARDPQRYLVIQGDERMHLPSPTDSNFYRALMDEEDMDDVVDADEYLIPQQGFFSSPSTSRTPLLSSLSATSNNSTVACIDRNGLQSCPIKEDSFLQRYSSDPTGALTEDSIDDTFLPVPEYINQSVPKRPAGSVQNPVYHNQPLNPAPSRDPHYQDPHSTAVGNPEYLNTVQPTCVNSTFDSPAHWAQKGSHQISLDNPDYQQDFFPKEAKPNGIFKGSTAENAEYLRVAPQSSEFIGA

Consider `Cc1cccc(NC(=O)Cn2c(=O)c3c(ncn3C)n(C)c2=O)c1` [T-1-MTA], for which the IC50 (in general, the concentration that gives 50% inhibition) was found to be 22.9 nM.

Values taken from PMC9997933, “Anticancer derivative of the natural alkaloid, theobromine, inhibiting EGFR protein: Computer-aided drug discovery approach” (PLOS ONE, 2023).
